Measurements from article PMC11123841, “Discovery and Synthesis of Hydroxy-L-Proline Blockers of the Neutral Amino Acid Transporters SLC1A4 (ASCT1) and SLC1A5 (ASCT2)” (Molecules, 2024).
pIC50: −log10 of the molar value.

Assays:
[1] = target: T1, SLC1A5 (Mus musculus, UniProt P51912); assay: [3H]L-Gln radiolabeled uptake competition in oocytes; format: cell-based
T1 construct: expressed in transfected cells; host or cells: Xenopus laevis oocytes (cRNA injection)
T1 sequence (P51912 1-553): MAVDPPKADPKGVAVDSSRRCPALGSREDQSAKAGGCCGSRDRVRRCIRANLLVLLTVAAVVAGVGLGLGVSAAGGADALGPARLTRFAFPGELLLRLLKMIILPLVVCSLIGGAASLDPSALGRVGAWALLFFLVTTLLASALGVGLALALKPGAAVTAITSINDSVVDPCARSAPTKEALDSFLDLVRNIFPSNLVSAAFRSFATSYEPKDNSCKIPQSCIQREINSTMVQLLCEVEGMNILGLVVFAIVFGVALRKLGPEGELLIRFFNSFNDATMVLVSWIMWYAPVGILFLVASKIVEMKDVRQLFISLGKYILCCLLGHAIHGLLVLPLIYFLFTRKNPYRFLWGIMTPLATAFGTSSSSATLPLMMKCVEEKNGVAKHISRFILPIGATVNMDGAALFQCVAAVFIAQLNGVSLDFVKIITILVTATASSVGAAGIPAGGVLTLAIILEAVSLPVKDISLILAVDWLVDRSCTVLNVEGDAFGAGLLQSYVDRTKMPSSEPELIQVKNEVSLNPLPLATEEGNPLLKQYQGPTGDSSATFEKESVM
Method: (§1) Uptake was halted by washing 3 times with 4 °C ND96 buffer. Oocytes were then lysed in 0.1% Triton X-100, and radioactivity was counted via liquid scintillation. Dose response curves were generated by fitting fractional inhibition (I) to the expression I = Imax × [inhibitor]/([inhibitor] + IC50).
(A) SLC1A4 dose response curves for substrate activated anion currents using two-electrode voltage clamp of Xenopus lavies oocytes (−30 mV). […] (B) SLC1A5 dose response curve for substrate activated anion currents using two-electrode voltage clamp (−30 mV). […] Extracellular solutions contained 50 mM NaSCN.

[2] = target: T2, SLC1A1 (EAAT3) (Homo sapiens, UniProt P43005); assay: TEVC in oocytes expressing glutamate transporter; format: cell-based; details: SLC1A1; applied at 1 mM
T2 construct: expressed in transfected cells; host or cells: Xenopus laevis oocytes (cRNA injection)
T2 sequence (P43005 1-524): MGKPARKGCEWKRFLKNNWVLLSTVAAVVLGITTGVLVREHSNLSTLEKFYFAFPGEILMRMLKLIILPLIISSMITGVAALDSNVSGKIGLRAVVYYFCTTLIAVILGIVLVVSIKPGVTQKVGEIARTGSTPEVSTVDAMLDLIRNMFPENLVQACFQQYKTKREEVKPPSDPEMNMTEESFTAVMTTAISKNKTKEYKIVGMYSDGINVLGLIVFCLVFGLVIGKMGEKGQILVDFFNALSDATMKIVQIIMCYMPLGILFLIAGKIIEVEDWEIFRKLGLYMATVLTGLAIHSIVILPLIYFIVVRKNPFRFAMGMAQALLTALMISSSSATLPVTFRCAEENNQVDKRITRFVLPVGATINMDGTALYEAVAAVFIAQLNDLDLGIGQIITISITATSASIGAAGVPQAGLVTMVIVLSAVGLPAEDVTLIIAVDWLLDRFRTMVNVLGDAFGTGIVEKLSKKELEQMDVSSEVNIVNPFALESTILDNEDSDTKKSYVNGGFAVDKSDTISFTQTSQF
Method: (§2) Additionally, 4-HP applied at 1 mM was used to assess activity at the glutamate transporters SLC1A3 or SLC1A1.
(§3) BPOHP activity was evaluated against the glutamate transporters paralogs within the SLC1A gene family (SLC1A 1–3) as well as at neutral amino acid transporters that share common ligand substrates with the SLC1 family including SLC38A1,2, and 4 (ATA1, ATA2, ATA3) and heteromeric transporters SLC7A10+SLC3A2 (asc-1/4f2).
as §1
(§4) Two-electrode voltage clamp (TEVC) transporter currents were recorded with a GeneClamp 500 amplifier and Digidata 1320A analog–digital interface (Molecular Devices, San Jose, CA, USA). Electrodes (0.2–1.0 MΩ) were filled with 3M KCl and the recording chamber was grounded with an agar bridge. Data were acquired with Axograph (v1.7.6) and LabChart (v7) and analyzed with Kaleidagraph software (v4.1) (Synergy, Reading, PA, USA). Uncoupled anion currents associated with the transport of substrate and block of SLC1A4 or SLC1A5 mediated leak conductance were recorded in the presence of Ringer with 50% substitution of NaCl by NaSCN to amplify the non-transported anion conductance.
(§5) Figure SM-2 TEVC from oocytes expressing SLC1A1-3 transporters.
(§6) (1 picture or pasted object on this page, not shown here)

[3] = target: T3, SLC1A3 (EAAT1) (Homo sapiens, UniProt P43003); assay: TEVC in oocytes expressing glutamate transporter; format: cell-based; details: SLC1A3; applied at 1 mM
T3 construct: expressed in transfected cells; host or cells: Xenopus laevis oocytes (cRNA injection)
T3 sequence (P43003 whole entry): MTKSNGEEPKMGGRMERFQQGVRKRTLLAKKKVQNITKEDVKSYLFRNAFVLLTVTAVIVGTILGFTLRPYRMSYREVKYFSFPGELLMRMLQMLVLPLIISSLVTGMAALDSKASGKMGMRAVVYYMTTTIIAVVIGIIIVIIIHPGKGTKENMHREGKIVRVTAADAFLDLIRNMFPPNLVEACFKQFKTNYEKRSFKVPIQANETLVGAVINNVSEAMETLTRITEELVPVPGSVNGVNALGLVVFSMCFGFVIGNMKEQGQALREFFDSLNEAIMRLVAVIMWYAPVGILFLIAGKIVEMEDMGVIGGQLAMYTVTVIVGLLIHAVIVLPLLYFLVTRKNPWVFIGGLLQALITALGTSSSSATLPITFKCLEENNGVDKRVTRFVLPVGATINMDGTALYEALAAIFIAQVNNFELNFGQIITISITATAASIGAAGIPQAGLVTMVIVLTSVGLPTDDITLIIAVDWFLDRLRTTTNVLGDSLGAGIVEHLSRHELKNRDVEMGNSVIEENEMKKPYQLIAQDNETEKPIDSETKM
Method: as §2, §3, §1, §4, §5, §6

[4] = target: T4, SLC38A2 (ATA2) (Homo sapiens, UniProt Q96QD8); assay: TEVC electrogenic coupled currents in oocytes; format: cell-based; details: induced currents
T4 construct: expressed in transfected cells; host or cells: Xenopus laevis oocytes (cRNA injection)
T4 sequence (Q96QD8 1-506): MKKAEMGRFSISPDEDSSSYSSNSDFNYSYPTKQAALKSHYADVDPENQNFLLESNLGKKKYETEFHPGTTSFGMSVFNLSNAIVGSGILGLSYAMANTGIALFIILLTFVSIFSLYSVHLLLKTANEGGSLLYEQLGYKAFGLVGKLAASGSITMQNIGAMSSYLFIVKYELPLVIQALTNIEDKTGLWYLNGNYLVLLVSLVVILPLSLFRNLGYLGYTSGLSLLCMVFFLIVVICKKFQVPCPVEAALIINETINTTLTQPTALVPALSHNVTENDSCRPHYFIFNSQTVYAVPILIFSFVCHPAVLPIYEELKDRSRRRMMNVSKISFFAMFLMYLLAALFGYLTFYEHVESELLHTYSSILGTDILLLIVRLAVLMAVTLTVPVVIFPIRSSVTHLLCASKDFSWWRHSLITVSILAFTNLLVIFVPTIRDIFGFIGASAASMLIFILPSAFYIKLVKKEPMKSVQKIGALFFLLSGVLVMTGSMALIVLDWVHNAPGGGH
Method: as §2, §3, §1
as §4, with “Electrodes (0.2–1.0 MΩ) were filled with 3M KCl and the recording chamber was grounded with an agar bridge.” left out, “conductance. […]” for “conductance.”

[5] = test system: SLC1A4; set-up: method as in PMID 14502423; details: cited from earlier work

O=C(O)[C@@H]1C[C@@H](O)CN1 [4-HP, trans-4-hydroxy-L-proline, reference compound]
pIC50 [1]: 3.97 | TEVC current response or block [2]: No TEVC current response or block was observed | TEVC current response or block [3]: No TEVC current response or block was observed | Km [4]: 3.1 mM | increase in affinity for SLC1A4 over L-proline [5]: approximately 20 fold
